How the values were obtained:
[1] = (§1) Cytotoxicity against human THP1 cells assessed as cell death after 24 hrs by LDH assay; assay type: cell-based, THP-1; settings: THP-1 cells, read-out: LD50
[2] = system: Staphylococcus epidermidis; assay: Antibacterial activity against Staphylococcus epidermidis H 6996/08 assessed as growth inhibition after 48 hrs by broth microdilution test; assay type: functional; settings: H 6996/08, 48 h
Trichosporon asahii [3] = assay: Antifungal activity against Trichosporon asahii 1188 assessed as growth inhibition after 24 hrs by CLSI M27-A2 broth microdilution method; assay type: functional; settings: Trichosporon asahii, 1188, 24 h
Mycobacterium kansasii = assay: Antimycobacterial activity against log-phase Mycobacterium kansasii CIT11/06 assessed as growth inhibition after 5 days by alamar blue assay; assay type: functional; settings: CIT11/06, 120 h
[4] = Octanol-water partition coefficient, log P of the compound; assay type: physicochemical
Staphylococcus aureus [5] = assay: Antibacterial activity against methicillin-resistant Staphylococcus aureus H 5996/08 assessed as growth inhibition after 24 hrs by broth microdilution test; assay type: functional; settings: H 5996/08, 24 h
[6] = system: Trichophyton mentagrophytes; assay: Antifungal activity against Trichophyton mentagrophytes 445 assessed as growth inhibition after 120 hrs by CLSI M38-A broth microdilution method; assay type: functional, organism-based; settings: Trichophyton mentagrophytes, 445, 120 h
Pichia kudriavzevii [7] = assay: Antifungal activity against Candida krusei E28 assessed as growth inhibition after 48 hrs by CLSI M27-A2 broth microdilution method; assay type: functional; settings: E28, 48 h
[8] = system: Staphylococcus epidermidis; assay: Antibacterial activity against Staphylococcus epidermidis H 6996/08 assessed as growth inhibition after 24 hrs by broth microdilution test; assay type: functional; settings: H 6996/08, 24 h
Candida albicans [9] = assay: Antifungal activity against Candida albicans ATCC 44859 assessed as growth inhibition after 48 hrs by CLSI M27-A2 broth microdilution method; assay type: functional; settings: ATCC 44859, 48 h
Trichosporon asahii [10] = assay: Antifungal activity against Trichosporon asahii 1188 assessed as growth inhibition after 48 hrs by CLSI M27-A2 broth microdilution method; assay type: functional; settings: Trichosporon asahii, 1188, 48 h
Staphylococcus aureus [11] = assay: Antibacterial activity against methicillin-resistant Staphylococcus aureus H 5996/08 assessed as growth inhibition after 48 hrs by broth microdilution test; assay type: functional; settings: H 5996/08, 48 h
Pichia kudriavzevii [12] = assay: Antifungal activity against Candida krusei E28 assessed as growth inhibition after 24 hrs by CLSI M27-A2 broth microdilution method; assay type: functional; settings: E28, 24 h
Candida albicans [13] = assay: Antifungal activity against Candida albicans ATCC 44859 assessed as growth inhibition after 24 hrs by CLSI M27-A2 broth microdilution method; assay type: functional; settings: ATCC 44859, 24 h
[14] = system: Trichophyton mentagrophytes; assay: Antifungal activity against Trichophyton mentagrophytes 445 assessed as growth inhibition after 72 hrs by CLSI M38-A broth microdilution method; assay type: functional, organism-based; settings: Trichophyton mentagrophytes, 445, 72 h
[15] = Lipophilicity, log K of the compound in methanol-water mixture by RP-HPLC; assay type: physicochemical
THP-1 = assay: as §1; assay type: cell-based; settings: thp-1, 24 h

## O=C(Cc1ccccc1)Nc1nc2ccccc2s1
[1]
  CC50 at 24 h: > 30 µM
[2]
  IC80: 500 µM
Trichosporon asahii [3]
  IC80: 31.2 µM
Mycobacterium kansasii
  IC90: 256 µM
[4]
  logP: 3.98
Staphylococcus aureus [5]
  IC80: 31.2 µM
[6]
  IC50: 125 µM
Pichia kudriavzevii [7]
  IC80: 125 µM
[8]
  IC80: 125 µM
Candida albicans [9]
  IC80: 7.81 µM
Trichosporon asahii [10]
  IC80: 62.2 µM
Staphylococcus aureus [11]
  IC90: 62.2 µM
Pichia kudriavzevii [12]
  IC80: 62.5 µM
Candida albicans [13]
  IC80: 3.9 µM
[14]
  IC50: 15.6 µM
[15]
  log K: 0.5413

## O=C(Nc1nc2ccccc2s1)c1ccccc1
[1]
  CC50 at 24 h: > 30 µM
[2]
  IC80: > 500 µM
Trichosporon asahii [3]
  IC80: 250 µM
Mycobacterium kansasii
  IC90: 533 µM
[4]
  logP: 4.04
Staphylococcus aureus [5]
  IC80: 125 µM
[6]
  IC50: 125 µM
Pichia kudriavzevii [7]
  IC80: > 500 µM
[8]
  IC80: > 500 µM
Candida albicans [9]
  IC80: 125 µM
Trichosporon asahii [10]
  IC80: > 500 µM
Staphylococcus aureus [11]
  IC90: 500 µM
Pichia kudriavzevii [12]
  IC80: 500 µM
Candida albicans [13]
  IC80: 125 µM
[14]
  IC50: 62.2 µM
[15]
  log K: 0.6643

## CNc1nc2ccccc2s1
[2]
  IC80: 125 µM
Trichosporon asahii [3]
  IC80: 125 µM
Mycobacterium kansasii
  IC90: > 1830 µM
[4]
  logP: 2.73
Staphylococcus aureus [5]
  IC80: 500 µM
[6]
  IC50: 62.5 µM
Pichia kudriavzevii [7]
  IC80: > 500 µM
[8]
  IC80: 125 µM
Candida albicans [9]
  IC80: 250 µM
Trichosporon asahii [10]
  IC80: > 500 µM
Staphylococcus aureus [11]
  IC90: 500 µM
Pichia kudriavzevii [12]
  IC80: 500 µM
Candida albicans [13]
  IC80: 125 µM
[14]
  IC50: 62.5 µM
[15]
  log K: 0.3819

## CC(=O)Nc1nc2ccccc2s1
[1]
  CC50 at 24 h: > 30 µM
[2]
  IC80: > 500 µM
Trichosporon asahii [3]
  IC80: 250 µM
Mycobacterium kansasii
  IC90: 1300 µM
[4]
  logP: 2.14
Staphylococcus aureus [5]
  IC80: 250 µM
[6]
  IC50: 250 µM
Pichia kudriavzevii [7]
  IC80: > 500 µM
[8]
  IC80: 250 µM
Candida albicans [9]
  IC80: 125 µM
Trichosporon asahii [10]
  IC80: > 500 µM
Staphylococcus aureus [11]
  IC90: 500 µM
Pichia kudriavzevii [12]
  IC80: 250 µM
Candida albicans [13]
  IC80: 62.5 µM
[14]
  IC50: 250 µM
[15]
  log K: 0.3661

## CCCCC(=O)Nc1nc2ccccc2s1
[1]
  CC50 at 24 h: > 30 µM
[2]
  IC80: 62.5 µM
Trichosporon asahii [3]
  IC80: 62.5 µM
Mycobacterium kansasii
  IC90: 1090 µM
[4]
  logP: 3.63
Staphylococcus aureus [5]
  IC80: 31.2 µM
[6]
  IC50: 62.5 µM
Pichia kudriavzevii [7]
  IC80: > 125 µM
[8]
  IC80: 31.2 µM
Candida albicans [9]
  IC80: 31.2 µM
Trichosporon asahii [10]
  IC80: > 125 µM
Staphylococcus aureus [11]
  IC90: 125 µM
Pichia kudriavzevii [12]
  IC80: 125 µM
Candida albicans [13]
  IC80: 31.2 µM
[14]
  IC50: 31.2 µM
[15]
  log K: 0.578

## CC(C)CC(=O)Nc1nc2ccccc2s1
[1]
  CC50 at 24 h: > 30 µM
[2]
  IC80: > 125 µM
Trichosporon asahii [3]
  IC80: 125 µM
Mycobacterium kansasii
  IC90: 480 µM
[4]
  logP: 3.54
Staphylococcus aureus [5]
  IC80: 125 µM
[6]
  IC50: 62.5 µM
Pichia kudriavzevii [7]
  IC80: > 125 µM
[8]
  IC80: > 125 µM
Candida albicans [9]
  IC80: 125 µM
Trichosporon asahii [10]
  IC80: > 125 µM
Staphylococcus aureus [11]
  IC90: 125 µM
Pichia kudriavzevii [12]
  IC80: > 125 µM
Candida albicans [13]
  IC80: 125 µM
[14]
  IC50: 62.5 µM
[15]
  log K: 0.5598

## CC(C)(C)C(=O)Nc1nc2ccccc2s1
THP-1
  LD50: ND(Insoluble)
[2]
  IC80: 500 µM
Trichosporon asahii [3]
  IC80: > 500 µM
Mycobacterium kansasii
  IC90: 1040 µM
[4]
  logP: 4.07
Staphylococcus aureus [5]
  IC80: 250 µM
[6]
  IC50: 250 µM
Pichia kudriavzevii [7]
  IC80: > 500 µM
[8]
  IC80: 125 µM
Candida albicans [9]
  IC80: 250 µM
Trichosporon asahii [10]
  IC80: > 500 µM
Staphylococcus aureus [11]
  IC90: 500 µM
Pichia kudriavzevii [12]
  IC80: 500 µM
Candida albicans [13]
  IC80: 62.5 µM
[14]
  IC50: 62.5 µM
[15]
  log K: 0.5891

## O=C(Nc1nc2ccccc2s1)C1CCCCC1
[1]
  CC50 at 24 h: > 30 µM
[2]
  IC80: > 125 µM
Trichosporon asahii [3]
  IC80: 125 µM
Mycobacterium kansasii
  IC90: 960 µM
[4]
  logP: 4.11
Staphylococcus aureus [5]
  IC80: > 125 µM
[6]
  IC50: > 125 µM
Pichia kudriavzevii [7]
  IC80: > 125 µM
[8]
  IC80: > 125 µM
Candida albicans [9]
  IC80: > 125 µM
Trichosporon asahii [10]
  IC80: > 125 µM
Staphylococcus aureus [11]
  IC90: > 125 µM
Pichia kudriavzevii [12]
  IC80: > 125 µM
Candida albicans [13]
  IC80: > 125 µM
[14]
  IC50: > 125 µM
[15]
  log K: 0.688

## COC(=O)Nc1nc2ccccc2s1
[1]
  CC50 at 24 h: 27.5 µM
[2]
  IC80: 500 µM
Trichosporon asahii [3]
  IC80: 250 µM
Mycobacterium kansasii
  IC90: 533 µM
[4]
  logP: 2.72
Staphylococcus aureus [5]
  IC80: 250 µM
[6]
  IC50: 125 µM
Pichia kudriavzevii [7]
  IC80: > 250 µM
[8]
  IC80: 125 µM
Candida albicans [9]
  IC80: 250 µM
Trichosporon asahii [10]
  IC80: 500 µM
Staphylococcus aureus [11]
  IC90: 250 µM
Pichia kudriavzevii [12]
  IC80: > 250 µM
Candida albicans [13]
  IC80: 125 µM
[14]
  IC50: 125 µM
[15]
  log K: 0.4251

## c1ccc(CNc2nc3ccccc3s2)cc1
[2]
  IC80: > 125 µM
Trichosporon asahii [3]
  IC80: 125 µM
[4]
  logP: 4.46
Staphylococcus aureus [5]
  IC80: > 125 µM
[6]
  IC50: > 125 µM
Pichia kudriavzevii [7]
  IC80: > 125 µM
[8]
  IC80: > 125 µM
Candida albicans [9]
  IC80: > 125 µM
Trichosporon asahii [10]
  IC80: > 125 µM
Staphylococcus aureus [11]
  IC90: > 125 µM
Pichia kudriavzevii [12]
  IC80: > 125 µM
Candida albicans [13]
  IC80: > 125 µM
[14]
  IC50: > 125 µM
[15]
  log K: 0.6012

## OC(Cn1cncn1)(Cn1cncn1)c1ccc(F)cc1F [FLUCONAZOLE]
Trichosporon asahii [3]
  IC80: 0.24 µM
[6]
  IC50: 3.91 µM
Pichia kudriavzevii [7]
  IC80: 15.6 µM
Candida albicans [9]
  IC80: 0.12 µM
Trichosporon asahii [10]
  IC80: 0.48 µM
Pichia kudriavzevii [12]
  IC80: 3.91 µM
Candida albicans [13]
  IC80: 0.06 µM
[14]
  IC50: 1.95 µM

## NNC(=O)c1ccncc1 [ISONIAZID]
Mycobacterium kansasii
  IC90: < 729 µM

## CC1(C)S[C@@H]2[C@H](NC(=O)COc3ccccc3)C(=O)N2[C@H]1C(=O)O [PENICILLIN V]
[2]
  IC80: 250 µM
Staphylococcus aureus [5]
  IC80: 250 µM
[8]
  IC80: 62.5 µM
Staphylococcus aureus [11]
  IC90: 500 µM

## NC(=O)c1cnccn1 [PYRAZINAMIDE]
Mycobacterium kansasii
  IC90: > 812 µM
